From patent US20160046620A1, “METHODS OF CONTROLLING NEONICOTINOID RESISTANT PESTS” (SYNGENTA PARTICIPATIONS AG, priority 2013, published 2016) come the findings set out here.

The structures appear in SMILES notation.

This series relates to Orius laevigatus. As to the kind of experiment: Safety to beneficial species: test on Orius laevigatus on treated french bean leaf discs. In kind it is in vivo. The note with it: Orius laevigatus adults; for Corrected Mortality (%) 2 DAI: 2 days after infestation; for Corrected Mortality (%) 4 DAI: 4 days after infestation. Here is the method: Phaseolus vulgaris var. Fulvio (french bean) plants were reduced to one leaf. With the leaves held in a horizontal position, a track sprayer was used to treat the plants at a rate corresponding to […]. Once dry, leaf discs were collected from the plants and placed treated side up in petri dishes containing 1% water agar.
A paper triangle was added for shelter, and a suitable amount of Ephestia eggs were added as a food supply. Five (5) Orius laevigatus (predatory bug, Syngenta Bioline) adults were added and the dishes closed with a cotton filter and perforated plastic lid. The dishes were incubated in a climate chamber at 25° C., 75% relative humidity, 16:8 h light/dark regime.
Six replicates were provided for each treatment and concentration level. The number of living and dead Orius laevigatus were counted two and four days after infestation (DAI). At the day two evaluation the food supply was replenished.

On to `C#CCN1[C@@H]2CC[C@H]1C[C@](C#N)(c1cncc(C#N)c1)C2` [Compound 1.074, (1S,3S,5R)-3-(5-cyano-pyridin-3-yl)-8-prop-2-ynyl-8-aza-bicyclo[3.2.1]octane-3-carbonitrile], for which the “Corrected Mortality (%) 2 DAI” value is 4% (50 ppm), 0% (100 ppm) and 7% (200 ppm). Also, the “Corrected Mortality (%) 4 DAI” value runs as follows: (50 ppm) 4%; (100 ppm) 0%; (200 ppm) 39%.

Consider `N#Cc1cncc([C@]2(C#N)C[C@H]3CC[C@@H](C2)N3CC(F)(F)F)c1` [Compound 1.085], for which the “Corrected Mortality (%) 2 DAI” value is, setting by setting: (50 ppm) 0%; (100 ppm) 0%; (200 ppm) 0%. In addition, the “Corrected Mortality (%) 4 DAI” value by setting is: (50 ppm) 9%; (100 ppm) 9%; (200 ppm) 22%.

As for `O=[N+]([O-])NC1=NCCN1Cc1ccc(Cl)nc1` [Imidacloprid, reference compound], the “Corrected Mortality (%) 2 DAI” value was determined as 11% (50 ppm), 43% (100 ppm) and 75% (200 ppm). Besides, the “Corrected Mortality (%) 4 DAI” value runs as follows: (50 ppm) 30%; (100 ppm) 65%; (200 ppm) 100%.
